Data taken from patent US5968933A, “DNA-targeted alkylating agents” (Auckland Division Cancer Society of New Zealand Inc., priority 1994, dated 1999).
Like-named read-outs stand apart in the source and are kept apart here.

Key:
P388 cells = experiment: Growth inhibition in vitro, P388 leukaemia; format: cell-based, murine
Protocol: (§1) Representative examples of compounds of the invention were tested for biological activity against tumors. Compounds 1 to 6 and 14 to 21, prepared as described above, were tested for their ability to inhibit growth in vitro of cells of the wild-type murine leukaemia cell line P388, and the cell line AA8 which is derived from Chinese hamster ovary cells. For each compound, the IC50, ie. the concentration of compound which inhibited cell growth in treated cultures to 50% of that of controls, was determined, using means of three determinations. In addition, a hypersensitivity factor was determined by comparing activity of the compounds against AA8 cells to activity against UV4. The latter cell line is deficient in aspects of the excision repair pathway for removing DNA adducts, and is hypersensitive to DNA-alkylating agents, especially interstrand crosslinking agents. Previous work has shown that the ratio of IC50 s determined in the wild-type AA8 and mutant UV4 lines (the hypersensitivity factor HF) is a determinant of the mode of cell killing by alkylating agents (Palmer, B. D. et al, J. Med. Chem., 1990 33 112-121; Wilson, W. R. et al, J. Med. Chem., 1989 32 31-38). Compounds with HFs of ca. 1 are unlikely to kill cells via DNA alkylation events. Compounds which show high HF values are likely to form bulky adducts or cross-links,with the latter being especially likely for compounds showing the highest HF values (>ca. 25) (Wilson et al, op. cit.).
(§2) Cell lines were maintained in exponential growth phase by subculturing in RPMI 1640 (P338) or Alpha MEM (AA8, UV4) containing 10% fetal calf serum, as previously described (Palmer et al, op.cit.; Baguley, B. C. and Wilson, W. R., Eur. J. Cancer Clin. Oncol., 1987 23 607-613). IC50 values were determined using log-phase cultures in 96-well microculture plates, and were calculated as the nominal drug concentration required to reduce the cell density to 50% of control values, using 8 control cultures on each microplate. For P388 cultures, drug was present throughout the growth period (72 h), and final cell densities were determined using a minor modification of the MTT method of Mossman (Mossman, T., J. Immunol. Methods, 1983 65 55-63). For AA8 and UV4 cultures, drug exposure was terminated after 18 h by washing three times with fresh medium. Cultures were then grown for a further 72 h before determining cell density by staining with methylene blue (Finlay, G. J. et al, Anal. Biochem., 1984 139 272-277).

linearized pSV2gpt DNA = experiment: DNA crosslinking assay (agarose gel electrophoresis of linearized plasmid); format: biochemical; conditions: 2 h at 30° C., TE-80 buffer pH 8
Protocol: The ability of representative compounds of the invention to bind to and cross-link DNA was examined. This was carried out by agarose gel electrophoresis of plasmid DNA using linearized pSV2gpt DNA (Tindall, K. R. and Stankowski, L. F.; Mutation Research, 1989 220 241-245) and the method reported by Valu et al, 1990, op.cit. Briefly, linearized pSV2gpt DNA (1 μL of a 1 mg/mL solution) was incubated with drug in TE-80 buffer (10 mM Tris.HCl, 1 mM EDTA at pH 8), shielded from ambient light, for 2 h at 30° C., then denatured by the addition of […] of 1% sodium dodecyl sulfate and 10 μL of 50 mM methylmercury hydroxide and incubated for a further 30 min at 20° C. in the dark. Renaturation of drug-treated DNA samples was carried out by incubation with 2.5 μL of 2-mercaptoethanol for 1 h. Samples were prepared for electrophoresis by the addition of 0.1 mg/mL bromophenol blue, 0.5 μg/mL ethidium bromide and 5 μL of 40% sucrose. Electrophoresis was carried out at 120V in 89 mM tris/borate buffer at pH 8 containing 2 mM EDTA and 0.5 μg/mL ethidium bromide. DNA was visualized using 302 nm trans-illumination, and was photographed using Polaroid type 55 film and a Wratten 3A filter.
After drug treatment, DNA is denatured to the single stranded form, which runs as a lower band in the gels (see lanes 1 and 2 in FIG. 1). Cross-linking by the drugs is evidenced by the appearance of increasing amounts of renatured, double stranded DNA, as shown by the upper band in the gels, corresponding to the band for untreated DNA seen in lane 1.

calf thymus DNA [1] = experiment: Rate of alkylation of calf thymus DNA by increase in DNA-bound fluorescence; format: biochemical; parameters: unit not given here
AA8 cells = experiment: Growth inhibition in vitro, AA8; format: cell-based, Chinese hamster
Protocol: as §1, §2

AA8 and UV4 cells = experiment: Hypersensitivity factor (AA8/UV4 IC50 ratio); format: cell-based, Chinese hamster; conditions: ratio of IC50s AA8/UV4
Protocol: as §1, §2

P338 murine leukaemia = format: in vivo, mice; conditions: for Optimal dose: single i.p. dose; for % Increase in lifespan: single i.p. dose 24 h after tumour inoculation, at optimal dose (mg/kg: 1 30; 2 30; 3 13.3; 4 3.9; 5 5.9; 6 8.9)
S. typhimurium TA98 = experiment: Bacterial mutagenicity, plate incorporation assay, TA98; conditions: mean ± SD
S. typhimurium TA100 = experiment: Bacterial mutagenicity, plate incorporation assay, TA100; conditions: mean ± SD
S. typhimurium TA102 = experiment: Bacterial mutagenicity, plate incorporation assay, TA102; conditions: mean ± SD
calf thymus DNA [2] = experiment: Reversible DNA binding by spectrophotometric Scatchard analysis; conditions: 20° C., 0.01M HEPES buffer, pH 7.00
[3] = P388 cells, 72 h, MTT, read-out: IC50
[4] = 80 μg/plate, square brackets: toxicity becoming apparent
[5] = 120 μg/plate, square brackets: toxicity becoming apparent
[6] = 40 μg/plate, square brackets: toxicity becoming apparent

## CN1CCN(c2ccc3nc(-c4ccc5nc(CCCc6cccc(N(CCCl)CCCl)c6)[nH]c5c4)[nH]c3c2)CC1 [Compound 18]
P388 cells; [3]
  IC50: > 1000 nM

## CCN(CCCl)c1ccc(CCCCCCc2nc3ccc(-c4nc5ccc(N6CCN(C)CC6)cc5[nH]4)cc3[nH]2)cc1 [Compound 16, 2-[2-[6-[4-(N-ethyl-N-(2-chloroethyl)amino)phenyl]hexyl]-5-benzimidazolyl]-5-(1-methyl-4-piperazinyl)benzimidazole]
P388 cells; Mus musculus, P388, 72 h
  IC50: 370 nM

## CCN(CCCl)c1ccccc1CCCc1nc2ccc(-c3nc4ccc(N5CCN(C)CC5)cc4[nH]3)cc2[nH]1 [Compound 21, 2-[2-[3-[2-(N-ethyl-N-(2chloroethyl)amino)phenyl]propyl]-5-benzimidazolyl]-5-(1-methyl-4-piperazinyl)-benzimidazole]
P388 cells; Mus musculus, P388, 72 h
  IC50: < 60 nM

## CCN(CCCl)c1ccc(CCCc2nc3ccc(-c4nc5ccc(N6CCN(C)CC6)cc5[nH]4)cc3[nH]2)cc1 [Compound 14]
P388 cells; Mus musculus, P388, 72 h
  IC50: 740 nM

## CCN(CCCl)c1ccc(CCc2nc3ccc(-c4nc5ccc(N6CCN(C)CC6)cc5[nH]4)cc3[nH]2)cc1 [Compound 15, 2-[2-[2-[4-(N-Ethyl-N-(2-chloroethyl)amino)phenyl]ethyl]-5-benzimidazoyl]-5-(1-methyl-4-piperazinyl)benzimidazole]
P388 cells; Mus musculus, P388, 72 h
  IC50: 120 nM

## CN1CCN(c2ccc3nc(-c4ccc5nc(Cc6ccc(N(CCCl)CCCl)cc6)[nH]c5c4)[nH]c3c2)CC1 [Compound 3, 2-[2-[[4-(N,N-bis(2-chloroethyl)amino)phenyl]methyl]-5-benzimidazolyl]-5-(1-methyl-4-piperazinyl)benzimidazole]
Linearized pSV2gpt DNA
  Cross-linking: No
Calf thymus DNA [1]
  Rate constant for alkylation: 3.01 × 10^4
P388 cells; [3]
  IC50: 850 nM
AA8 cells; AA8 cells, 18 h exposure, then 72 h growth, methylene blue, read-out: IC50
  IC50: 1500 nM
AA8 and UV4 cells
  Hypersensitivity factor: 59
P338 murine leukaemia; P388, single-dose protocol
  in vivo antitumour activity: retained significant in vivo activity
P338 murine leukaemia
  Optimal dose: 13.3 mg/kg
  % Increase in lifespan: 71%
S. typhimurium TA98; 4 μg/plate
  reversion colonies, TA98: 71 ± 2
S. typhimurium TA98; 10 μg/plate
  reversion colonies, TA98: 83 ± 1
S. typhimurium TA98; 20 μg/plate
  reversion colonies, TA98: 87 ± 6
S. typhimurium TA98; 40 μg/plate
  reversion colonies, TA98: 86 ± 5
S. typhimurium TA98; [4]
  reversion colonies, TA98: 77 ± 10
S. typhimurium TA98; [5]
  reversion colonies, TA98: 86 ± 8
S. typhimurium TA100; 4 μg/plate
  reversion colonies, TA100: 154 ± 8
S. typhimurium TA100; 10 μg/plate
  reversion colonies, TA100: 130 ± 10
S. typhimurium TA100; 20 μg/plate
  reversion colonies, TA100: 137 ± 43
S. typhimurium TA100; 40 μg/plate
  reversion colonies, TA100: 167 ± 24
S. typhimurium TA100; 80 μg/plate
  reversion colonies, TA100: 167 ± 8
S. typhimurium TA100; [5]
  reversion colonies, TA100: 157 ± 12
S. typhimurium TA102; 4 μg/plate
  reversion colonies, TA102: 297 ± 38
S. typhimurium TA102; 10 μg/plate
  reversion colonies, TA102: 237 ± 64
S. typhimurium TA102; 20 μg/plate
  reversion colonies, TA102: 304 ± 16
S. typhimurium TA102; [6]
  reversion colonies, TA102: 268 ± 59
S. typhimurium TA102; [5]
  reversion colonies, TA102: 505 ± 121
Calf thymus DNA [2]
  Site size (Number of nucleotide residues): 3.0 nucleotide residues

## CCN(CCCl)c1ccc(Cc2nc3ccc(-c4nc5ccc(N6CCN(C)CC6)cc5[nH]4)cc3[nH]2)cc1 [Compound 17, 2-[2-[[4-(N-ethyl-N-(2-chloroethyl)amino)phenyl]methyl]-5-benzimidazoyl]-5-(1-methyl-4-piperazinyl)benzimidazole]
P388 cells; Mus musculus, P388, 72 h
  IC50: 90 nM

## CN1CCN(c2ccc3nc(-c4ccc5nc(-c6ccc(N(C)CCCl)cc6)[nH]c5c4)[nH]c3c2)CC1 [Compound 1, 2-[2-[4-(N-methyl-N-(2-chloroethyl)amino)phenyl]-5-benzimidazolyl]-5-(1-methyl-4-piperazinyl)benzimidazole]
P388 cells; Mus musculus, P388, 72 h
  IC50: 500 nM
AA8 cells; Cricetulus griseus, CHO-AA8
  IC50: 5750 nM
AA8 and UV4 cells
  Hypersensitivity factor: 14
P338 murine leukaemia
  Optimal dose: 30 mg/kg
  % Increase in lifespan: 86%
S. typhimurium TA98; 4 μg/plate
  reversion colonies, TA98: 70 ± 3
S. typhimurium TA98; 10 μg/plate
  reversion colonies, TA98: 62 ± 7
S. typhimurium TA98; 20 μg/plate
  reversion colonies, TA98: 67 ± 9
S. typhimurium TA98; 40 μg/plate
  reversion colonies, TA98: 52 ± 7
S. typhimurium TA98; [4]
  reversion colonies, TA98: 65 ± 3
S. typhimurium TA100; 4 μg/plate
  reversion colonies, TA100: 196 ± 23
S. typhimurium TA100; 10 μg/plate
  reversion colonies, TA100: 162 ± 21
S. typhimurium TA100; 20 μg/plate
  reversion colonies, TA100: 172 ± 13
S. typhimurium TA100; 40 μg/plate
  reversion colonies, TA100: 226 ± 23
S. typhimurium TA100; 80 μg/plate
  reversion colonies, TA100: 207 ± 12
S. typhimurium TA102; 4 μg/plate
  reversion colonies, TA102: 406 ± 20
S. typhimurium TA102; 10 μg/plate
  reversion colonies, TA102: 417 ± 26
S. typhimurium TA102; 20 μg/plate
  reversion colonies, TA102: 442 ± 62
S. typhimurium TA102; [6]
  reversion colonies, TA102: 442 ± 43

## CN1CCN(c2ccc3nc(-c4ccc5nc(CCCc6ccccc6N(CCCl)CCCl)[nH]c5c4)[nH]c3c2)CC1 [Compound 20]
P388 cells; [3]
  IC50: 610 nM

## CCN(CCCl)c1cccc(CCCc2nc3ccc(-c4nc5ccc(N6CCN(C)CC6)cc5[nH]4)cc3[nH]2)c1 [Compound 19, 2-[2-[3-[3-(N-ethyl-N-(2-chloroethyl)amino)phenyl]propyl]-5-benzimidazolyl]-5-(1-methyl-4-piperazinyl)-benzimidazole]
P388 cells; Mus musculus, P388, 72 h
  IC50: < 60 nM
